Values of other authors in US20040005304A1, “Novel compositions and methods for treating neurological disorders and associated gastrointestinal conditions” (MAK Wood, Inc., priority 2002, published 2004).

Test system: DPPIV
Conditions: cultured mouse intestinal wall cells (enterocyte cells)

## O=C[C@H](O)[C@@H](O)[C@@H](O)[C@H](O)CO [galactose]
  expression of DPPIV: increase the expression of DPPIV
